The values below come from publication PMC9847679, “The anti-breast cancer stem cell properties of gold(I)-non-steroidal anti-inflammatory drug complexes” (Chemical Science, 2022).

Data set [1] is described as follows: Reaction with thiol-containing biomolecules (1H and 31P NMR). Conditions: 10 mM in DMSO-d6, 37 °C, 72 h. As to the method:
As the mechanism of toxicity of many gold(I) complexes is associated to their interaction with thiol groups in proteins,[23] the reaction of 1 with N-acetylcysteine (NAC) and glutathione (GSH), model thiol-containing biomolecules, was probed using ^1H and ^31P{^1H} NMR spectroscopy studies (over 72 h at 37 °C). […] The ^31P{^1H} NMR studies also indicated the immediate formation of [Au^I(NAC)(PPh3)] or [Au^I(GSH)(PPh3)] (Fig. S50–S51 ^†). [Au^I(NAC)(PPh3)] and [Au^I(GSH)(PPh3)] were independently prepared in situ by reacting [Au^I(acac)(PPh3)][58] with NAC or GSH in DMSO-d6, to confirm the abovementioned assignments.

Another data set relates to 4T1 cells. As to the kind of experiment: Monolayer cytotoxicity (MTT assay), 4T1 cells. Type of data set: cell-based, murine. Conditions: 72 h incubation. From the text: (§1) Cell Lines and Cell Culture Conditions. The human mammary epithelial HMLER and HMLER-shEcad cell lines were kindly donated by Prof. R. A. Weinberg (Whitehead Institute, MIT). The human epithelial breast MCF10A, breast adenocarcinoma MDA-MB-231 and MDA-MB-468, murine epithelial breast 4T1, and embryonic kidney HEK 293 cell lines were acquired from American Type Culture Collection (ATCC, Manassas, VA, USA).
(§2) HMLER, HMLER-shEcad, and MCF10A cells were maintained in Mammary Epithelial Cell Growth Medium (MEGM) with supplements and growth factors (BPE, hydrocortisone, hEGF, insulin, and gentamicin/amphotericin-B). MDA-MB-231, MDA-MB-468, 4T1, and HEK 293 cells were maintained in Dulbecco's Modified Eagle's Medium (DMEM) supplemented with fetal bovine serum (10 %) and penicillin/streptomycin (1 %). The cells were grown at 310 K in a humidified atmosphere containing 5% CO2.
(§3) Monolayer Cytotoxicity Studies. Exponentially growing cells were seeded at a density of approximately 5 × 10^3 cells per well in 96-well flat-bottomed microplates and allowed to attach for 24 h prior to addition of compounds. Various concentrations of the test compounds (0.0004-100 μM) were added and incubated for 72 h at 37 °C (total volume 200 μl). Stock solutions of the compounds were prepared as 10 mM DMSO solutions and diluted using cell […]
(§4) media. The final concentration of DMSO in each well was ≤1 %. […] The optical density was measured at 550 nm using a 96-well multiscanner autoreader. Absorbance values were normalised to (DMSO-containing) control wells and plotted as concentration of test compound versus % cell viability. […]
(§5) h, the fluorescence of the solutions was read at 590 nm (λex = 560 nm). […]
(§6) Cellular Uptake. […] The number of cells was counted at this stage, using a haemocytometer. […] All samples were diluted 17-fold with water and analysed using inductively coupled plasma mass spectrometry (ICP-MS, Thermo Scientific ICAP-Qc quadrupole ICP mass spectrometer). Gold levels are expressed as mass of Au (ng) per million cells. […]
(Tetrazolium dyes change colour on reduction, which living cells bring about.)

A further data set deals with HMLER-shEcad cells. Nature of the data set: FITC Annexin V-propidium iodide assay. Type of data set: cell-based, human. Conditions: IC50 value ×2, 48 h. The method, then: Annexin V-Propidium Iodide Assay. HMLER-shEcad cells were incubated with and […]
harvested from adherent cultures by trypsinisation. The FITC Annexin V/Dead Cell Apoptosis Kit was used. The manufacture’s (Thermo Fisher Scientific) protocol was followed to carry out this experiment.
1× Annexin binding buffer (100 µL) (10 mM HEPES, 140 mM NaCl, 2.5 mM CaCl2, pH 7.4), then 5 µL FITC Annexin V and 1 µL PI (100 µg/ mL) were added to each sample and incubated at room temperature for 15 min. After which more 1× Annexin binding buffer (400 µL) was added while gently mixing. The cells were analysed using a FACSCanto II flow cytometer (BD Biosciences) (10,000 events per sample were acquired) at the University of Leicester FACS Facility. The FL1 channel was used to assess Annexin V binding and the FL2 channel was used to assess PI uptake. Cell populations were analysed using the FlowJo […]
ice-cold methanol (for 30 min), and suspended in PBS (200 μL). […]
(§7) COX-2 Inhibition Enzyme Immunoassay (EIA). […]
(§8) (ovine) Inhibitor Screening Assay (Cayman Chemicals).” The assay was performed according to the manuf acturer’s instructions using a 96-well plate set up.

Another data set concerns MDA-MB-231 cells. As to the kind of experiment: Monolayer cytotoxicity (MTT assay), MDA-MB-231 cells. Type of data set: cell-based, human. Conditions: 72 h incubation.
Description: as §1, §2, §3, §4, §5, §6

Data set [2] relates to HMLER-shEcad mammospheres. As to the kind of experiment: Mammosphere viability assay (TOX8). It counts as cell-based, human. Conditions: 5 days incubation.
Description: Tumorsphere Formation and Viability Assay.
in ultralow-attachment 96-well plates (Corning) and incubated in MEGM supplemented with B27 (Invitrogen), 20 ng mL-1 EGF and 4 μg mL-1 heparin (Sigma) for 5 days. […] The viability of the mammospheres was determined by addition of a resazurin-based reagent, TOX8 (Sigma). After incubation for 16 h, the fluorescence of the solutions was read at 590 nm (λex = 560 nm). Viable mammospheres reduce the amount of the oxidised TOX8 form (blue) and concurrently increase the amount of the fluorescent TOX8 intermediate (red), indicating the degree of mammosphere cytotoxicity caused by the test compound. Fluorescence values were normalised to DMSO-containing controls and plotted as concentration of test compound versus % mammospheres viability. IC50 values were interpolated from the resulting dose dependent curves. The reported IC50 values are the average of three independent experiments, each consisting of two replicates per concentration level (overall n = 6).
The subject of another data set is HMLER cells. As to the kind of experiment: Monolayer cytotoxicity (MTT assay), HMLER cells. Conditions: 72 h incubation, MTT. It counts as cell-based, human.
Description: as §1, §2, §3
media. The final concentration of DMSO in each well was ≤1 %. After 72 h, 20 μl of MTT (4 mg mL-1 in PBS) was added to each well and the plates incubated for an additional 4 h at 37 °C. The media/MTT mixture was eliminated and DMSO (100 μl per well) was added to dissolve the formazan precipitates. The optical density was measured at 550 nm using a 96-well multiscanner autoreader. Absorbance values were normalised to (DMSO-containing) control wells and plotted as concentration of test compound versus % cell viability. IC50 values were interpolated from the resulting dose dependent curves. The reported IC50 values are the average of three independent experiments (n = 18). […]
After incubation for 16 […]
h, the fluorescence of the solutions was read at 590 nm (λex = 560 nm). Viable mammospheres reduce the amount of the oxidised TOX8 form (blue) and concurrently increase the amount of the fluorescent TOX8 intermediate (red), indicating the degree of mammosphere cytotoxicity caused by the test compound. […]
Cellular Uptake. To measure the cellular uptake of 1-3 about 1 million HMLER-shEcad cells were treated with 1-3 (0.25 μM) at 37 °C for 24 h. After incubation, the media was removed, the cells were washed with PBS (2 mL × 3) and harvested. The number of cells was counted at this stage, using a haemocytometer. This mitigates any cell death induced by 1-3 at the administered concentration and experimental cell loss. The cellular pellets were dissolved in 65% HNO3 (250 µL) overnight. A cellular pellet of HMLER-shEcad cells treated with 1 was also used to determine the gold content in the nuclear, cytoplasmic and membrane fractions. The Thermo Scientific NE-PER Nuclear and Cytoplasmic Extraction Kit was used to extract and separate the nuclear, cytoplasmic and membrane fractions. The fractions were dissolved in 65% HNO3 (250 µL final volume) overnight. All samples were diluted 17-fold with water and analysed using inductively coupled plasma mass spectrometry (ICP-MS, Thermo Scientific ICAP-Qc quadrupole ICP mass spectrometer). Gold levels are expressed as mass of Au (ng) per million cells. Results are presented as the mean of four determinations for each data point.
Intracellular ROS Assay. […]

The subject of another data set is COX-2. Nature of the data set: COX-2 expression assay (flow cytometry). Type of data set: cell-based, human. Conditions: LPS 2.5 μM 24 h pre-treatment; 1 at IC50 value or indomethacin 20 μM, 48 h. The method, then:
COX-2 Expression Assay. HMLER-shEcad cells were seeded in 6-well plates (at a density […]
indomethacin (20 μM) and incubated for a further 48 h. The cells were then harvested by trypsinisation, fixed with 4% paraformaldehyde (at 37 °C for 10 min), permeabilised with ice-cold methanol (for 30 min), and suspended in PBS (200 μL). […]
labelled anti-COX-2 antibody (5 μL) was then added to the cell suspension and incubated in the dark for 1 h. The cells were then washed with PBS (1 mL) and analysed using a FACSCanto II flow cytometer (BD Biosciences) (10,000 events per sample were acquired) at the University of Leicester FACS Facility. The FL1 channel was used to assess COX-2 expression. Cell populations were analysed using the FlowJo software (Tree Star).
as §7, §8
For orientation: In flow cytometry, cells or beads pass a laser one at a time.

For the compound `COc1ccc2c(c1)c(CC(=O)[O][Au][PH](c1ccccc1)(c1ccccc1)c1ccccc1)c(C)n2C(=O)c1ccc(Cl)cc1` [complex 1], the “reaction with stoichiometric NAC or GSH” value in data set [1] was “The reaction occurred immediately”. The half-maximal inhibitory concentration (IC50) – broadly, the midpoint of a concentration-inhibition curve – came out at 2240 ± 110 nM with 4T1 cells, 3940 ± 300 nM in the data set on MDA-MB-231 cells, 2000 ± 100 nM in data set [2] and 190 ± 10 nM in the data set with HMLER cells. For the same compound, the apoptosis induction result with HMLER-shEcad cells is reported as “induced large populations of cells to undergo late-stage apoptosis”. Moreover, the COX-2 expression result with COX-2 was “decreased”.
